Data from the supplement of paper PMC10307832.

What was measured:
Assay in all cases: relative viability (nuclei count vs DMSO), 5 days (fraction); higher = more cells survive
Ibrutinib + Dasatinib = compound: C=CC(=O)N1CCC[C@@H](n2nc(-c3ccc(Oc4ccccc4)cc3)c3c(N)ncnc32)C1 [Ibrutinib] + Cc1nc(Nc2ncc(C(=O)Nc3c(C)cccc3Cl)s2)cc(N2CCN(CCO)CC2)n1 [Dasatinib] (partner 0.075 µM)
Summary of the method: (§1)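 Dosing by pin tool came one day after lung cancer cell lines were seeded in 1536-well plates, using either one drug or a fixed anchor-drug dose plus five library-drug doses (not always all listed) in √10 steps. After 5 days, nuclei were counted on 4× images. Relative viability is treated-well nuclei count divided by vehicle-well nuclei count, and values are medians of duplicate plates.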

BMX-IN-1 + Pictilisib = compound: C=CC(=O)Nc1cc(-n2c(=O)ccc3cnc4ccc(-c5ccc(NS(C)(=O)=O)cc5)cc4c32)ccc1C [BMX-IN-1] + CS(=O)(=O)N1CCN(Cc2cc3nc(-c4cccc5[nH]ncc45)nc(N4CCOCC4)c3s2)CC1 [Pictilisib] (partner 1 µM)
Summary of the method: as §1

BMX-IN-1 + AZD7762 = compound: C=CC(=O)Nc1cc(-n2c(=O)ccc3cnc4ccc(-c5ccc(NS(C)(=O)=O)cc5)cc4c32)ccc1C [BMX-IN-1] + NC(=O)Nc1cc(-c2cccc(F)c2)sc1C(=O)N[C@H]1CCCNC1 [AZD7762] (partner 0.2 µM)
Summary of the method: as §1

BMX-IN-1 + OSI-027 = compound: C=CC(=O)Nc1cc(-n2c(=O)ccc3cnc4ccc(-c5ccc(NS(C)(=O)=O)cc5)cc4c32)ccc1C [BMX-IN-1] + COc1cccc2cc(-c3nc([C@H]4CC[C@H](C(=O)O)CC4)n4ncnc(N)c34)[nH]c12 [OSI-027] (partner 0.5 µM)
Summary of the method: as §1

Cell Line | relative viability (Ibrutinib + Dasatinib; first compound 0.005 µM) | relative viability (Ibrutinib + Dasatinib; first compound 0.01581 µM) | relative viability (Ibrutinib + Dasatinib; first compound 0.05 µM) | relative viability (Ibrutinib + Dasatinib; first compound 0.1581 µM) | relative viability (Ibrutinib + Dasatinib; first compound 0.5 µM) | relative viability (BMX-IN-1 + Pictilisib; first compound 0.02 µM) | relative viability (BMX-IN-1 + Pictilisib; first compound 0.2 µM) | relative viability (BMX-IN-1 + Pictilisib; first compound 0.6325 µM) | relative viability (BMX-IN-1 + Pictilisib; first compound 2 µM) | relative viability (BMX-IN-1 + AZD7762; first compound 0.02 µM) | relative viability (BMX-IN-1 + AZD7762; first compound 0.2 µM) | relative viability (BMX-IN-1 + AZD7762; first compound 0.6325 µM) | relative viability (BMX-IN-1 + AZD7762; first compound 2 µM) | relative viability (BMX-IN-1 + OSI-027; first compound 0.02 µM) | relative viability (BMX-IN-1 + OSI-027; first compound 0.2 µM) | relative viability (BMX-IN-1 + OSI-027; first compound 0.6325 µM) | relative viability (BMX-IN-1 + OSI-027; first compound 2 µM)
HARA | 0.288 | 0.235 | 0.223 | 0.236 | 0.194 | 0.4 | 0.284 | 0.482 | 0.397 | 0.47 | 0.454 | 0.26 | 0.322 | 0.403 | 0.544 | 0.562 | 0.457
NCI-H1975 | 0.349 | 0.293 | 0.263 | 0.345 | 0.134 | 0.285 | 0.291 | 0.363 | 0.287 | 0.797 | 0.742 | 0.895 | 0.673 | 0.873 | 0.741 | 1.04 | 0.696
NCI-H23 | 0.705 | 0.762 | 0.902 | 0.662 | 0.901 | 0.483 | 0.495 | 0.582 | 0.411 | 0.211 | 0.272 | 0.18 | 0.25 | 0.549 | 0.728 | 0.581 | 0.713
CAL-12T | 0.363 | 0.295 | 0.354 | 0.475 | 0.24 | 0.527 | 0.425 | 0.47 | 0.422 | 0.665 | 0.76 | 0.647 | 0.613 | 0.712 | 0.665 | 0.659 | 0.679
LCLC-97TM1 | 0.951 | 0.804 | 0.973 | 0.703 | 0.782 | 0.189 | 0.197 | 0.274 | 0.207 | 0.235 | 0.239 | 0.327 | 0.202 | 0.585 | 0.66 | 0.542 | 0.628
NCI-H1944 | 0.21 | 0.18 | 0.206 | 0.178 | 0.193 | 0.386 | 0.352 | 0.387 | 0.336 | 0.479 | 0.661 | 0.52 | 0.578 | 0.417 | 0.405 | 0.502 | 0.452
NCI-H1915 | 0.287 | 0.292 | 0.288 | 0.319 | 0.369 | 0.953 | 0.898 | 1.14 | 1.04 | 0.774 | 0.786 | 0.806 | 0.675 | 0.647 | 0.714 | 0.805 | 0.619
BEN | – | 0.291 | 0.232 | 0.273 | 0.314 | 0.643 | 0.741 | 0.513 | 0.596 | 0.747 | 0.706 | 0.69 | 0.707 | 0.319 | 0.282 | 0.294 | 0.31
H3255 | 0.35 | 0.346 | 0.276 | 0.292 | 0.242 | 0.437 | 0.461 | 0.592 | 0.488 | 0.93 | 0.866 | 1.05 | 0.874 | 0.635 | 0.658 | 0.578 | 0.518
